Reference: publication PMC9715595, “Optimization of the precursor supply for an enhanced FK506 production in Streptomyces tsukubaensis” (Frontiers in Bioengineering and Biotechnology, 2022)
Blank lines part the entries; values can stand above or below the compound they belong to.

Legend:
[1] = biological target: T1, PipAf (Pip; LCD from A. friuliensis) (Actinoplanes friuliensis, UniProt U5VYY1); assay: X-ray crystal structure ([…] Å); format: binding; conditions: crystallised with 1 mM NAD+; cofactor modelled as NADH; one NADH per monomer
T1 construct: gene AFR_18570; full length, N-terminal His-tag (pET30 Ek/LIC), E. coli; monomer 339 residues, ~36 kDa, homodimer
T1 sequence (U5VYY1 1-339): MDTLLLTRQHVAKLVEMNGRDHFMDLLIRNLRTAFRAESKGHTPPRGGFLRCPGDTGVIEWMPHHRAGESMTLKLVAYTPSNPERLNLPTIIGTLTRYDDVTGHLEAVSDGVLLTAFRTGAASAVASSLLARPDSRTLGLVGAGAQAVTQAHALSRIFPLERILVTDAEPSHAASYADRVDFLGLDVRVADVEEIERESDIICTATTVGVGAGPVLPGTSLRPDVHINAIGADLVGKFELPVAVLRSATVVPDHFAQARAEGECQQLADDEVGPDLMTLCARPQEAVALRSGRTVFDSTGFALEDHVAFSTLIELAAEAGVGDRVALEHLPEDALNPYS

[2] = biological target: T1, PipAf (Pip; LCD from A. friuliensis); assay: X-ray crystal structure ([…] Å); format: binding; conditions: co-crystallised with 140 mM lysine and 1 mM NAD+; NADH bound; pH 8.5; active site
[3] = biological target: lysine cyclodeaminase PipAf from Actinoplanes friuliensis (Actinoplanes friuliensis); assay: SEC; gel filtration on Superdex 200, 150 mM NaCl, 25 mM HEPES pH 7.4; main peak corresponds to a dimer

Compound: NC(=O)C1=CN([C@@H]2O[C@H](COP(=O)(O)OP(=O)(O)OC[C@H]3O[C@@H](n4cnc5c(N)ncnc54)[C@H](O)[C@@H]3O)[C@@H](O)[C@H]2O)C=CC1 [NADH]
X-ray crystal structure (1.3 Å) [1]: One molecule NADH binds per monomer via a canonical Rossman fold

Compound: NCCCC[C@H](N)C(=O)O [lysine]
X-ray crystal structure (1.4 Å) [2]: Lysine binds in the active site running parallel to the nicotinamide ring

stoichiometry N [3]: 2
Compound: lysine cyclodeaminase PipAf from Actinoplanes friuliensis (enzyme)
